# Measurements as given in PMC5911580, “YL143, a novel mutant selective irreversible EGFR inhibitor, overcomes EGFR^L858R, T790M‐mutant resistance in vitro and in vivo” (Cancer Medicine, 2018).
# “Also recorded” adds a separate entry of the source.
# Tests used:
# [1] = biological target: T1, EGFR^T790M (Homo sapiens, UniProt P00533, T790M); assay: FRET-based Z'-Lyte kinase assay, EGFR T790M; assay type: biochemical; settings: AV ± SD; 1.5 h incubation
# T1 construct: purchased Invitrogen
# Method: (§1) The kinase activity assay was performed and optimized according to the instructions of Z’‐LYTE™ kinase assay kits from the manufacturer (PV4879, Life, America). In our experiments, 10 concentration gradients from 0.01 nmol/L to 1.0 μmol/L were used for all the compounds.
# [2] = biological target: IR (Homo sapiens, UniProt P06213); assay: FRET-based Z'-Lyte kinase assay, IR; assay type: biochemical; settings: AV ± SD; 1.5 h incubation
# Method: as §1
# [3] = test system: H1975 (EGFR^L858R/T790M) cells; assay: CCK-8 cell growth assay, H1975; assay type: cell-based; settings: Homo sapiens, NCI-H1975; CCK-8, 72 h; AV ± SD; read-out: antiproliferative IC50 H1975
# Method: (§2) Cells were seeded into 96‐well plates at a density of 1500~3000/well in complete medium overnight. Then, cells were treated with various concentrations (0.01~1000 nmol/L) of YL143 for additional 3 days. Viable cell numbers were determined by Cell Counting Kit 8 (CCK8, CK04, Dojindo Laboratories, Japan). Each assay consisted of three replicate wells and repeated at least three times. […] Each IC50 value was expressed as mean ± SD.
# [4] = test system: A431 (EGFR^WT) cells; assay: CCK-8 cell growth assay, A431; assay type: cell-based; settings: Homo sapiens, A-431; CCK-8, 72 h; read-out: antiproliferative IC50 A431
# Method: as §2
# [5] = test system: A549 (EGFR^WT) cells; assay: CCK-8 cell growth assay, A549; assay type: cell-based; settings: Homo sapiens, A549; CCK-8, 72 h; read-out: antiproliferative IC50 A549
# Method: as §2
# [6] = biological target: AKT2 (Homo sapiens, UniProt P31751); assay: Z'-Lyte kinase panel, AKT2; assay type: biochemical; settings: 1.5 hrs incubation
# Method: (§3) Kinase activity assays were performed using the FRET-based Z′-Lyte assay according to the manufacturer’s instructions. The compounds were incubated with the kinase reaction mixture for 1.5 hrs before measurement. The data are means from two independent experiments and the variations are below 20%.
# [7] = biological target: PDGFRB (Homo sapiens, UniProt P09619); assay: Z'-Lyte kinase panel, PDGFRB; assay type: biochemical; settings: 1.5 hrs incubation
# Method: as §3
# [8] = biological target: T2, EGFR (Homo sapiens, UniProt P00533); assay: Z'-Lyte kinase panel, EGFR; assay type: biochemical; settings: 1.5 hrs incubation
# T2 construct: purchased Invitrogen
# Method: as §1, with “All EGFR (WT, L858R, L858R/T790M, etc.) recombinant human protein was purchased from Invitrogen. The” for “The”
# as §3
# [9] = biological target: ZAK (Homo sapiens, UniProt Q9NYL2); assay: Z'-Lyte kinase panel, ZAK; assay type: biochemical; settings: 1.5 hrs incubation
# Method: as §3
# [10] = biological target: FLT3 (Homo sapiens, UniProt P36888); assay: Z'-Lyte kinase panel, FLT3; assay type: biochemical; settings: 1.5 hrs incubation
# Method: as §3
# [11] = biological target: TRKA (Homo sapiens, UniProt P04629); assay: Z'-Lyte kinase panel, TRKA; assay type: biochemical; settings: 1.5 hrs incubation
# Method: as §3
# [12] = biological target: Kit (Homo sapiens, UniProt P10721); assay: Z'-Lyte kinase panel, Kit; assay type: biochemical; settings: 1.5 hrs incubation
# Method: as §3
# [13] = Pharmacokinetic study in SD rats; assay type: in vivo, rat
# Method: Sprague Dawley (SD) rats (180–220 g) were fasted overnight before drug administration. They could eat food and drink water freely during the study. Rats were grouped and treated with 25 and 5 mg/kg of YL143 in vehicle via oral gavage and i.v., respectively. Eyeground vein blood samples (0.20 mL) were collected from each animal at designed time point postdose (5, 30 min, 1, 2, 4, 8, 12, 24, 36, 48, 60, and 72 h.). Blood samples were centrifuged within 10 min at 900 g, and then, plasma was separated and stored at 4°C until analysis. Drug concentration was quantitatively detected using an API 300 mass spectrometer (Applied Biosystems, Canada) with TurboIonSpray source interface. Data acquisition and quantitation were performed using Analyst 1.4 (Applied Biosystems, Canada). All pharmacokinetic parameters were calculated by DAS 2.0 using a noncompartment model (Clinical drug research center of Shanghai University of Traditional Chinese Medicine, Shanghai, China).
# [14] = test system: H1975 xenograft; assay: H1975 tumor xenograft in CB17-SCID mice; assay type: in vivo; settings: 30 mg/kg, po, qd
# Method: Male CB17‐SCID mice were purchased from Vital River Laboratory Animal Technology Inc. (Beijing, China). H1975 cells (5 × 10^6/mouse) were injected subcutaneously in the right flanks of mice. […] All the compounds were suspended in 0.5% CMC‐Na aqueous solution. The tumor volume and body weight of animals were measured once every 2 days. Tumor volume was calculated as the L × W ^2/2 (L and W are the length and width of the tumor, respectively). All animal experiments were approved by the Institutional Animal Use and Care Committee of Guangzhou Institute of Biomedicine and Health, Chinese Academy of Science.
# [15] = test system: phosphorylation of EGFR and Erk in H1975 cells; assay: Western blot of EGFR signaling in H1975 cells; assay type: cell-based, human; settings: 4 h
# Method: Cells were treated with various concentrations of compound for designed time. Then, cells were lysed using 1 × SDS sample lysis buffer (CST recommended) with protease and phosphatase inhibitors. Cell lysates were loaded and electrophoresed onto 8–12% SDS‐PAGE gel, and then, separated proteins were transferred to a PVDF film. The film was blocked with 5% fat‐free milk in TBS solution containing 0.5% Tween‐20 for 4 h at room temperature and then incubated with corresponding primary antibody (1:1000–1:200) overnight at 4°C. After washing with TBST, HRP‐conjugated secondary antibody was incubated for 2 h. And the protein signals were visualized by ECL Western Blotting Detection Kit (Thermo Scientific, Waltham, MA) and detected with Amersham Imager 600 system (GE, America).
# Cells were treated with or without compound YL143 for 4 h at indicated concentration, respectively. Cells were harvested for Western blot analysis. […] NCI‐H1975 cells were treated with or without compound YL143(100 nmol/L) for 4 h, and then the medium with compound was removed and fresh medium was added. At the indicated time points, cells were harvest and proteins were extracted and subjected to Western blot analysis.
# [16] = biological target: EGFR^L858R/T790M (Homo sapiens, UniProt P00533, L858R/T790M); assay: FRET-based Z'-Lyte kinase assay, EGFR L858R/T790M; assay type: biochemical; design: purchased Invitrogen
# Method: as §1
# [17] = Sprague-Dawley, rat, plasma, iv, I.V. 5 mg/Kg
# [18] = Sprague-Dawley, rat, plasma, po, P.O. 25 mg/Kg
# EGFR^L858R/T790M, sequence (P00533 25-1210 T790M/L858R): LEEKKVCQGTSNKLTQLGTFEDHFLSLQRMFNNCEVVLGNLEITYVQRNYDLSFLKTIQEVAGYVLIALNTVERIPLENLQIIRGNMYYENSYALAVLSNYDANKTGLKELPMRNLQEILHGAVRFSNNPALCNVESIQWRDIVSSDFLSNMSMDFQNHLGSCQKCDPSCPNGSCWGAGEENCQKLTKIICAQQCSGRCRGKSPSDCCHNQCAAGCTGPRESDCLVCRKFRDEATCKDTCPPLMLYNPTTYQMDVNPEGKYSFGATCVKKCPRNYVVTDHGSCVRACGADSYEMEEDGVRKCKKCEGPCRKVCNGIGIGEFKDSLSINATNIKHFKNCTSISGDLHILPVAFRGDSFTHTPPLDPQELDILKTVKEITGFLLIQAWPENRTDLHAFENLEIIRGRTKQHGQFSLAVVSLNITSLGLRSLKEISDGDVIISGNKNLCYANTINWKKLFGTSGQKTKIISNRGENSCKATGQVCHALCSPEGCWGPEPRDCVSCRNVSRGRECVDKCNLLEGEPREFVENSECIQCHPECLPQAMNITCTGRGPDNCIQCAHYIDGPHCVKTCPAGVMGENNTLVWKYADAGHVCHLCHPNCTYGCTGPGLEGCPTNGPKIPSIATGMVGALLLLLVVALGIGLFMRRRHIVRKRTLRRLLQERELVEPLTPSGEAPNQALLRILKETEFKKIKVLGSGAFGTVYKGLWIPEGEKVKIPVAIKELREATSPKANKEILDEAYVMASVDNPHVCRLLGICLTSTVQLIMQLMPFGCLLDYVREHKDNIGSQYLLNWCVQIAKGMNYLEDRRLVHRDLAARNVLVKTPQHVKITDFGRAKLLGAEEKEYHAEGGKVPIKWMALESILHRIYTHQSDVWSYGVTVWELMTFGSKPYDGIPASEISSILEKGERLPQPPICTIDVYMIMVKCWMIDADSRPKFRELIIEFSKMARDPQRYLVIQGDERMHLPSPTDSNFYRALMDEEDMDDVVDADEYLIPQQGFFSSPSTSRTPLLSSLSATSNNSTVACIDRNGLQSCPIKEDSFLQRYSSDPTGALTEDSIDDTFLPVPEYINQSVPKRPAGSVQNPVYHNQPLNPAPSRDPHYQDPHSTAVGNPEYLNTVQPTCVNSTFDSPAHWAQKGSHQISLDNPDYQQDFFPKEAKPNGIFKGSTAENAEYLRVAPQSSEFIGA
# FLT3, sequence (P36888 27-993, species assumed): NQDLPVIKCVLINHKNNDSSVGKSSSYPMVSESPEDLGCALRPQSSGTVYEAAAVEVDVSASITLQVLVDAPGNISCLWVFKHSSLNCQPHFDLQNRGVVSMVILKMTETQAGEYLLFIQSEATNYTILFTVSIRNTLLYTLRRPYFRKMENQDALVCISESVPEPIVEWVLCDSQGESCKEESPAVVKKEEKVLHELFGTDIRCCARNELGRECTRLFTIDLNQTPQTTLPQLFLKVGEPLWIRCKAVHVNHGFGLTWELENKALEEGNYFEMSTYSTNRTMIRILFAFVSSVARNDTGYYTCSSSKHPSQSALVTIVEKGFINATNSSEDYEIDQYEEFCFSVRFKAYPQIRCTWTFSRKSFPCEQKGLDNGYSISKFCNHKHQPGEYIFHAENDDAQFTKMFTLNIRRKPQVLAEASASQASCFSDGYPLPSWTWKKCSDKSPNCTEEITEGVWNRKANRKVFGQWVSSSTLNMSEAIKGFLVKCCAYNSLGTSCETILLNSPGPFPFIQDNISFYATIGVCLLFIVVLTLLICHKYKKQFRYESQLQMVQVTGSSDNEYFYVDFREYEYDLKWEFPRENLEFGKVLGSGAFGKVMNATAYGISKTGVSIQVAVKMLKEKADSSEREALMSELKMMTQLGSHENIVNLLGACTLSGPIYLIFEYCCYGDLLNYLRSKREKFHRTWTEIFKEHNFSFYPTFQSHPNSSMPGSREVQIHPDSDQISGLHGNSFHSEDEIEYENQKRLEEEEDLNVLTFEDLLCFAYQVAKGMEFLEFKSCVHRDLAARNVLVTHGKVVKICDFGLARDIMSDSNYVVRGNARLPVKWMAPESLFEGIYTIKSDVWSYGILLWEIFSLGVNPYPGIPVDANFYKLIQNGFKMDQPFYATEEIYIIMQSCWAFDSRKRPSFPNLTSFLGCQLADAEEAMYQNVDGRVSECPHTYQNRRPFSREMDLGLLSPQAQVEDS
# TRKA, sequence (P04629 33-796, species assumed): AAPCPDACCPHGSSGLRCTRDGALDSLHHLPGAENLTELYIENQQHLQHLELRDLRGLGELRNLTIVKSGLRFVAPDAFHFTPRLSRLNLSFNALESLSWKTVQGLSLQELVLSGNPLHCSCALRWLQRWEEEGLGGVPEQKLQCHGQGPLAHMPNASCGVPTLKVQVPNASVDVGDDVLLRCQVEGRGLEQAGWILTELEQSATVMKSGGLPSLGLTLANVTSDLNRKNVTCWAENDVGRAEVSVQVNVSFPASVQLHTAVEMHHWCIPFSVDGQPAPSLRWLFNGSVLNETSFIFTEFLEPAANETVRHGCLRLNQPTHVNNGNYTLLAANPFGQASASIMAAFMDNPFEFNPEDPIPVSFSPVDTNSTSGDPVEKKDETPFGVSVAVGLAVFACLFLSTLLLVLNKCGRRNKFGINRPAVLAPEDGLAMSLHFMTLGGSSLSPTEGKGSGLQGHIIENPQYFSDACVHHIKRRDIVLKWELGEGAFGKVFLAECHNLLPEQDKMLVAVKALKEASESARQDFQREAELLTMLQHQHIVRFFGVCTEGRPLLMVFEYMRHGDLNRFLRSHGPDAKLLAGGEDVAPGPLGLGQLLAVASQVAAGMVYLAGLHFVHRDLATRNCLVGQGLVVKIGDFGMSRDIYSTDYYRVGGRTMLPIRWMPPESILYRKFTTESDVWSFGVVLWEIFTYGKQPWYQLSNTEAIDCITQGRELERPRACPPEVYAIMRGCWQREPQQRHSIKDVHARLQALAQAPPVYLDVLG
# T1 sequence (P00533 25-1210 T790M): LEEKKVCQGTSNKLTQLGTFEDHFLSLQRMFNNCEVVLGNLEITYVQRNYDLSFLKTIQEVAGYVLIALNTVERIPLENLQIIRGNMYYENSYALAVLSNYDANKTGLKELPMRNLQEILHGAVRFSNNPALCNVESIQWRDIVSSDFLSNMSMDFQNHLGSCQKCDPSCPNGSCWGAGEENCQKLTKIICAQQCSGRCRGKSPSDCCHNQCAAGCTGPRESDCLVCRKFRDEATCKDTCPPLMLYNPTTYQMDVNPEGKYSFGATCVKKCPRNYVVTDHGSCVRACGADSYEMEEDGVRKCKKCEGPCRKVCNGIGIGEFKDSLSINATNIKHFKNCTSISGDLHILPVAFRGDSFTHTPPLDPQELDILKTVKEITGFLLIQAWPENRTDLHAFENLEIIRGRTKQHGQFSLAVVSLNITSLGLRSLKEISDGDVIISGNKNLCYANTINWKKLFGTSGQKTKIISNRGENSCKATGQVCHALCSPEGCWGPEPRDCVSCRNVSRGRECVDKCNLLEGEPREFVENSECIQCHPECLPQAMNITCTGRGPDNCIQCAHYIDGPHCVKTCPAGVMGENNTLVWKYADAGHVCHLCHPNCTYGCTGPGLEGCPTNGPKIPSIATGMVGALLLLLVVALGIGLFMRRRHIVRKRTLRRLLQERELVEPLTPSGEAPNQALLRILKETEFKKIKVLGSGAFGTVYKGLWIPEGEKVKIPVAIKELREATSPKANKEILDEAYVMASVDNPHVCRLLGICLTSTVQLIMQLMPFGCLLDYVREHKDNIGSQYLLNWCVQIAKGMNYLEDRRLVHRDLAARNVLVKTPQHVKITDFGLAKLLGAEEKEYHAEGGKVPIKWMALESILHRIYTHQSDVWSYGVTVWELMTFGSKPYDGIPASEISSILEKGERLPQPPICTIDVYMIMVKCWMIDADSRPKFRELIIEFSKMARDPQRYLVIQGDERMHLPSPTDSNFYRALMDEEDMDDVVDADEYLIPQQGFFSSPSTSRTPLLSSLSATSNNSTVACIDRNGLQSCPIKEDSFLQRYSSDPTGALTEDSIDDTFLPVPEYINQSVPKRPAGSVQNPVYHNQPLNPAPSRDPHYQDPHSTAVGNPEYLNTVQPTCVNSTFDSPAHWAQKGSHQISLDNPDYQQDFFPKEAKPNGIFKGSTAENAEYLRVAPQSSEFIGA
# Kit, sequence (P10721 26-976, species assumed): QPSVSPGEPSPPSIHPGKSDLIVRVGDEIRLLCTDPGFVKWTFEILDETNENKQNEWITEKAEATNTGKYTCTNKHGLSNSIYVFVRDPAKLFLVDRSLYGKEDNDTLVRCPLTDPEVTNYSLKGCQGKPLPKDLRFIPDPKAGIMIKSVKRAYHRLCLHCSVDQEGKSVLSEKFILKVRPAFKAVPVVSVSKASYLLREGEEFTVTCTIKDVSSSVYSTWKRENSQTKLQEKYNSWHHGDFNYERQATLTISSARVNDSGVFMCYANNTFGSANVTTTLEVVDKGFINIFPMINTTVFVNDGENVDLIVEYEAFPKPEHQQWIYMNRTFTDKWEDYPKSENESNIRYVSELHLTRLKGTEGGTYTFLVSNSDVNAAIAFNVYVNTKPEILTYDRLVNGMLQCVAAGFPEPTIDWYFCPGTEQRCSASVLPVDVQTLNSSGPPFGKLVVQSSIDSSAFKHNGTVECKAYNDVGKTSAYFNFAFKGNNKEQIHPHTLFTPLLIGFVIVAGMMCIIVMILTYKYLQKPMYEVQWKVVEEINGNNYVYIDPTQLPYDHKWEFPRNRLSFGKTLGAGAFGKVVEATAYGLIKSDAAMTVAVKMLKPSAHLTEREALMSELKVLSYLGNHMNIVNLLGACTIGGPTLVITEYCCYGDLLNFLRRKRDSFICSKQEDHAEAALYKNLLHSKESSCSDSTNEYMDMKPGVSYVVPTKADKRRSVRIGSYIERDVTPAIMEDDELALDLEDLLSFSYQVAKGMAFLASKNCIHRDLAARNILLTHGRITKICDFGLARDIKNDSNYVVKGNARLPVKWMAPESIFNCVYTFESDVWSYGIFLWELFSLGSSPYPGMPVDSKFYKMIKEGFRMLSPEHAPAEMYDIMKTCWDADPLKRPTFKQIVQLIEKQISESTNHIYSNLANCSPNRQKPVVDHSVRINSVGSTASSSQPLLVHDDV
smiles,measurement,setting,value
"C=CC(=O)Nc1cc(C)cc(-n2c(=O)cc(C)c3cnc(Nc4ccc(N5CCN(C)CC5)cc4OC)nc32)c1 [YL143, N‐(3‐(2‐((2‐Methoxy‐4‐(4‐methylpiperazin‐1‐yl)phenyl)amino)‐5‐methyl‐7‐oxopyrido [2,3‐d]pyrimidin‐8(7H)‐yl)‐5‐methylphenyl)acrylamide]",IC50,[1],7.8 ± 1.1 nM
same,IC50,[2],7.5 ± 0.1 nM
same,IC50,[3],45.2 ± 27.3 nM
same,IC50,[4],> 1000 nM
same,IC50,[5],> 1000 nM
same,IC50,[6],> 10000 nM
same,IC50,[7],> 10000 nM
same,IC50,[8],35.3 nM
same,IC50,[9],> 10000 nM
same,IC50,[10],> 10000 nM
same,IC50,[11],> 10000 nM
same,IC50,[12],> 10000 nM
same,BA (oral bioavailability),[13]; P.O. 25 mg/Kg vs I.V. 5 mg/Kg,24.95%
same,T1/2,"[13]; P.O. 25 mg/Kg, 25 mg/kg",6.13 h
same,half-life,"[13]; Sprague-Dawley, rat, plasma, iv, 5 mg/kg, I.V. 5 mg/Kg",1.36 h
same,AUC(0-inf),[13]; [17],1880 ng·h/mL
same,Cmax,[13]; [17],3270 ng/mL
same,Tmax,[13]; [17],0.08 h
same,bioavailability,"[13]; Sprague-Dawley, rat, plasma, oral, 25 mg/kg, P.O. 25 mg/Kg vs I.V. 5 mg/Kg, read-out: BA (oral bioavailability)",25%
same,half-life,"[13]; Sprague-Dawley, rat, plasma, po, 25 mg/kg, P.O. 25 mg/Kg",6.1 h
same,AUC(0-inf),[13]; [18],2340 ng·h/mL
same,Cmax,[13]; [18],160 ng/mL
same,Tmax,[13]; [18],6.67 h
same,Cmax,"[13]; Sprague-Dawley, rat, plasma, single oral dosing 25 mg/kg",297 nM
same,TUNEL stain of the tumor tissue,[14]; 18 days,induced apoptosis
same,antitumor efficacy,[14]; 18 days,promising antitumor efficacy; also recorded: comparable in vivo antitumor effect to that of CO1686
same,"tolerability (mortality, body weight)",[14]; 18 days,well tolerated; also recorded: without significantly toxic signs
same,hyperglycemia side effect (blood glucose),"[14]; day 7 and 14, compared with CO1686",weaker hyperglycemia side effect
same,phosphorylation of EGFR and Erk,[15],dose‐dependently inhibited
same,IC50,"[16]; AV ± SD, 1.5 h incubation",2 ± 0.3 nM
same,potency factor over CO1686 and osimertinib on EGFR^L858R/T790M,[16]; parallel comparison,5–7
